Experimental data taken from US9132140B2, “Boronic acid derivatives and therapeutic uses thereof” (Rempex Pharmaceuticals, Inc., priority 2013, dated 2015).

Legend:
ECM6703 (pUCP24-NDM-1) = assay: microbe, parasite or virus in culture; assay type: cell-based, E. coli; settings: NDM-1 producing strain; compound fixed 4 μg/ml or 8 μg/ml
ECM6711 (pUCP24-VIM-1) = assay: microbe, parasite or virus in culture; assay type: cell-based, E. coli; settings: VIM-1 producing strain; compound fixed 4 μg/ml or 8 μg/ml
[1] = system: panel of clinical isolates expressing class A, B and D carbapenemases; assay: Carbapenem potentiation MIC, whole panel; assay type: cell-based; settings: all strains of the panel; compound fixed 5 μg/ml
Source text: The results are present in Table 6.
The results are present in Table 7.

KPC-2 [2] = molecular target: T1, KPC-2 (Klebsiella pneumoniae, UniProt Q9F663); assay: Inhibition of purified beta-lactamase, nitrocefin cleavage; assay type: biochemical; settings: read-out: Ki (KPC-2, NCF)
T1 sequence (Q9F663 25-293, looked up, species assumed): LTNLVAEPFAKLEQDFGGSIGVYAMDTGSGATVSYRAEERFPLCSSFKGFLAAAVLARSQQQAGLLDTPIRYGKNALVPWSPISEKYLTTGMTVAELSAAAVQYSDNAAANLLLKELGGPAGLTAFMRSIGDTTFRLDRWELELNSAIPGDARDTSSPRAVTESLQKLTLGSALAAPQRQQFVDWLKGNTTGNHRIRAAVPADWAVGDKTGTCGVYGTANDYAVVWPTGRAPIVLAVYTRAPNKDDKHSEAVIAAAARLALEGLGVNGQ
Protocol: Purified enzymes were mixed with various concentrations of inhibitors in reaction buffer and incubated for 10 min at room temperature. Nitrocefin was added and substrate cleavage profiles were recorded at 490 nm every 10 sec for 10 min.

KPC-2 [3] = molecular target: T1, KPC-2; assay: Inhibition of purified class A carbapenemase, biapenem cleavage; assay type: biochemical; settings: substrate biapenem 100 μM

O=C(O)c1cccc2c1OB(O)[C@@H](Sc1nncs1)C2 [Compound 1, (R)-3-(1,3,4-thiadiazol-2-ylthio)-2-hydroxy-3,4-dihydro-2H-benzo[e][1,2]oxaborinine-8-carboxylic acid]
imipenem MIC in the presence of compound (ECM6703 (pUCP24-NDM-1)): decreased to the level of the strain containing empty vector | imipenem MIC in the presence of compound (ECM6711 (pUCP24-VIM-1)): decreased to the level of the strain containing empty vector | carbapenem MIC in the presence of compound [1]: significantly reduced | Ki (KPC-2 [2]): 100 to 1000 nM | Ki (KPC-2 [3]): 10 to 100 nM
